Source: ChEMBL document CHEMBL1817568, “Novel hybrids of fluconazole and furanones: design, synthesis and antifungal activity” (2011)
Converted amounts (≈) assume the structure as drawn. The source made the active and inactive calls. The rule behind the calls is not given here.

Tests used:
Cryptococcus neoformans [1] = experiment: Antifungal activity against Cryptococcus neoformans ATCC 34664 at 32 ug/ml by broth dilution method; format: functional, organism-based
Pichia kudriavzevii [2] = experiment: Antifungal activity against Candida krusei ATCC 6258 at 32 ug/ml by broth dilution method; format: functional, organism-based
Candida tropicalis [3] = experiment: Antifungal activity against Candida tropicalis ATCC 750 at 32 ug/ml by broth dilution method; format: functional, organism-based
Nakaseomyces glabratus [4] = experiment: Antifungal activity against Candida glabrata ATCC 90030 at 32 ug/ml by broth dilution method; format: functional, organism-based
Aspergillus fumigatus [5] = experiment: Antifungal activity against Aspergillus fumigatus ATCC 46645 at 32 ug/ml by broth dilution method; format: functional, organism-based
Aspergillus niger [6] = experiment: Antifungal activity against Aspergillus niger ATCC 16404 at 32 ug/ml by broth dilution method; format: functional, organism-based
Fusarium proliferatum [7] = experiment: Antifungal activity against Fusarium proliferatum ATCC 10052 at 32 ug/ml by broth dilution method; format: functional, organism-based
Candida albicans [8] = experiment: Antifungal activity against Candida albicans ATCC 24433 at 32 ug/ml by broth dilution method; format: functional, organism-based
Cryptococcus neoformans [9] = experiment: Antifungal activity against Cryptococcus neoformans ATCC 34664 at 8 ug/ml by broth dilution method; format: functional, organism-based
Candida tropicalis [10] = experiment: Antifungal activity against Candida tropicalis ATCC 750 at 8 ug/ml by broth dilution method; format: functional, organism-based
Aspergillus fumigatus [11] = experiment: Antifungal activity against Aspergillus fumigatus ATCC 46645 at 8 ug/ml by broth dilution method; format: functional, organism-based
Nakaseomyces glabratus [12] = experiment: Antifungal activity against Candida glabrata ATCC 90030 by broth dilution method; format: functional
Candida albicans [13] = experiment: Antifungal activity against Candida albicans ATCC 24433 by broth dilution method; format: functional
Fusarium proliferatum [14] = experiment: Antifungal activity against Fusarium proliferatum ATCC 10052 at 8 ug/ml by broth dilution method; format: functional, organism-based
Aspergillus niger [15] = experiment: Antifungal activity against Aspergillus niger ATCC 16404 at 8 ug/ml by broth dilution method; format: functional, organism-based
Pichia kudriavzevii [16] = experiment: Antifungal activity against Candida krusei ATCC 6258 at 8 ug/ml by broth dilution method; format: functional, organism-based
Candida tropicalis [17] = experiment: Antifungal activity against Candida tropicalis ATCC 750 by broth dilution method; format: functional
Cryptococcus neoformans [18] = experiment: Antifungal activity against Cryptococcus neoformans ATCC 34664 at 16 ug/ml by broth dilution method; format: functional, organism-based
Aspergillus fumigatus [19] = experiment: Antifungal activity against Aspergillus fumigatus ATCC 46645 at 16 ug/ml by broth dilution method; format: functional, organism-based
Fusarium proliferatum [20] = experiment: Antifungal activity against Fusarium proliferatum ATCC 10052 at 16 ug/ml by broth dilution method; format: functional, organism-based
Pichia kudriavzevii [21] = experiment: Antifungal activity against Candida krusei ATCC 6258 at 16 ug/ml by broth dilution method; format: functional, organism-based
Aspergillus niger [22] = experiment: Antifungal activity against Aspergillus niger ATCC 16404 at 16 ug/ml by broth dilution method; format: functional, organism-based
Candida tropicalis [23] = experiment: Antifungal activity against Candida tropicalis ATCC 750 at 16 ug/ml by broth dilution method; format: functional, organism-based
Cryptococcus neoformans [24] = experiment: Antifungal activity against Cryptococcus neoformans ATCC 34664 at 2 ug/ml by broth dilution method; format: functional, organism-based
Pichia kudriavzevii [25] = experiment: Antifungal activity against Candida krusei ATCC 6258 at 2 ug/ml by broth dilution method; format: functional, organism-based
Aspergillus fumigatus [26] = experiment: Antifungal activity against Aspergillus fumigatus ATCC 46645 at 2 ug/ml by broth dilution method; format: functional, organism-based
Candida albicans [27] = experiment: Antifungal activity against Candida albicans ATCC 24433 at 2 ug/ml by broth dilution method; format: functional, organism-based
Aspergillus niger [28] = experiment: Antifungal activity against Aspergillus niger ATCC 16404 at 2 ug/ml by broth dilution method; format: functional, organism-based
Candida tropicalis [29] = experiment: Antifungal activity against Candida tropicalis ATCC 750 at 2 ug/ml by broth dilution method; format: functional, organism-based
Fusarium proliferatum [30] = experiment: Antifungal activity against Fusarium proliferatum ATCC 10052 at 2 ug/ml by broth dilution method; format: functional, organism-based
Candida albicans [31] = experiment: Antifungal activity against Candida albicans ATCC 24433 at 16 ug/ml by broth dilution method; format: functional, organism-based
Nakaseomyces glabratus [32] = experiment: Antifungal activity against Candida glabrata ATCC 90030 at 16 ug/ml by broth dilution method; format: functional, organism-based
Cryptococcus neoformans [33] = experiment: Antifungal activity against Cryptococcus neoformans ATCC 34664 at 128 ug/ml by broth dilution method; format: functional, organism-based
Candida albicans [34] = experiment: Antifungal activity against Candida albicans ATCC 24433 at 128 ug/ml by broth dilution method; format: functional, organism-based
Aspergillus fumigatus [35] = experiment: Antifungal activity against Aspergillus fumigatus ATCC 46645 at 128 ug/ml by broth dilution method; format: functional, organism-based
Nakaseomyces glabratus [36] = experiment: Antifungal activity against Candida glabrata ATCC 90030 at 128 ug/ml by broth dilution method; format: functional, organism-based
Fusarium proliferatum [37] = experiment: Antifungal activity against Fusarium proliferatum ATCC 10052 at 128 ug/ml by broth dilution method; format: functional, organism-based
Candida tropicalis [38] = experiment: Antifungal activity against Candida tropicalis ATCC 750 at 128 ug/ml by broth dilution method; format: functional, organism-based
Pichia kudriavzevii [39] = experiment: Antifungal activity against Candida krusei ATCC 6258 at 128 ug/ml by broth dilution method; format: functional, organism-based
Aspergillus niger [40] = experiment: Antifungal activity against Aspergillus niger ATCC 16404 at 128 ug/ml by broth dilution method; format: functional, organism-based
Nakaseomyces glabratus [41] = experiment: Antifungal activity against Candida glabrata ATCC 90030 at 2 ug/ml by broth dilution method; format: functional, organism-based
Cryptococcus neoformans [42] = experiment: Antifungal activity against Cryptococcus neoformans ATCC 34664 by broth dilution method; format: functional
Pichia kudriavzevii [43] = experiment: Antifungal activity against Candida krusei ATCC 6258 by broth dilution method; format: functional
Fusarium proliferatum [44] = experiment: Antifungal activity against Fusarium proliferatum ATCC 10052 by broth dilution method; format: functional
Aspergillus fumigatus [45] = experiment: Antifungal activity against Aspergillus fumigatus ATCC 46645 by broth dilution method; format: functional
Aspergillus niger [46] = experiment: Antifungal activity against Aspergillus niger ATCC 16404 by broth dilution method; format: functional

What does the source list for COc1ccc(C2=C(c3ccc(Br)cc3)COC2=O)cc1?
Activity (Cryptococcus neoformans [1]): inactive; Activity (Pichia kudriavzevii [2]): inactive; Activity (Candida tropicalis [3]): inactive; Activity (Nakaseomyces glabratus [4]): inactive; Activity (Aspergillus fumigatus [5]): inactive; Activity (Aspergillus niger [6]): inactive; Activity (Fusarium proliferatum [7]): inactive; Activity (Candida albicans [8]): inactive

With COc1cc(C2=C(c3ccc(F)cc3F)COC2=O)ccc1OCC(O)(Cn1cncn1)c1ccc(F)cc1F (racemic) as the molecule, how does the Activity (Cryptococcus neoformans [9]) read?
Its Activity is “inactive”.

What about the Activity (Candida tropicalis [10]) of the same molecule?
The Activity was “inactive”.

What about the Activity (Aspergillus fumigatus [11]) of the same molecule?
Its Activity is “inactive”.

What about the MIC50 (Nakaseomyces glabratus [12]) of the same molecule?
Its MIC50 is 1 µg/mL (≈ 1.8 µM).

What about the MIC50 (Candida albicans [13]) of the same molecule?
The MIC50 was 1 µg/mL (≈ 1.8 µM).

And the Activity (Fusarium proliferatum [14])?
The Activity was “inactive”.

And the Activity (Aspergillus niger [15])?
The Activity was “inactive”.

And the Activity (Pichia kudriavzevii [16])?
Its Activity is “inactive”.

For O=C1NC(=S)S/C1=C\c1ccc(OCC(O)(Cn2cncn2)c2ccc(F)cc2F)cc1 (racemic), which Activity (Cryptococcus neoformans [1]) is on record?
Its Activity is “inactive”.

And the MIC50 (Nakaseomyces glabratus [12])?
Its MIC50 is 4 µg/mL (≈ 8.43 µM).

And the Activity (Pichia kudriavzevii [2])?
Its Activity is “inactive”.

And the MIC50 (Candida albicans [13])?
Its MIC50 is 0.5 µg/mL (≈ 1.05 µM).

What about the Activity (Aspergillus fumigatus [5]) of the same molecule?
Its Activity is “inactive”.

What about the Activity (Aspergillus niger [6]) of the same molecule?
Its Activity is “inactive”.

And the MIC50 (Candida tropicalis [17])?
The MIC50 was 8 µg/mL (≈ 16.9 µM).

And the Activity (Fusarium proliferatum [7])?
The Activity was “inactive”.

How did the MIC50 (Nakaseomyces glabratus [12]) turn out when COc1cc(/C=C2\SC(=S)NC2=O)ccc1OCC(O)(Cn1cncn1)c1ccc(F)cc1F (racemic) was run?
The MIC50 was 8 µg/mL (≈ 15.9 µM).

What about the Activity (Cryptococcus neoformans [18]) of the same molecule?
The Activity was “inactive”.

And the MIC50 (Candida albicans [13])?
The MIC50 was 1 µg/mL (≈ 1.98 µM).

What about the Activity (Aspergillus fumigatus [19]) of the same molecule?
Its Activity is “inactive”.

And the Activity (Fusarium proliferatum [20])?
Its Activity is “inactive”.

And the Activity (Pichia kudriavzevii [21])?
The Activity was “inactive”.

And the Activity (Aspergillus niger [22])?
Its Activity is “inactive”.

And the Activity (Candida tropicalis [23])?
Its Activity is “inactive”.

COc1cc(/C=C2\N=C(c3ccccc3)OC2=O)cc(OC)c1OCC(O)(Cn1cncn1)c1ccc(F)cc1F (racemic) was tested. Which Activity (Cryptococcus neoformans [24]) did it give?
The Activity was “inactive”.

And the Activity (Pichia kudriavzevii [25])?
The Activity was “inactive”.

And the Activity (Aspergillus fumigatus [26])?
The Activity was “inactive”.

And the Activity (Candida albicans [27])?
Its Activity is “inactive”.

What about the Activity (Aspergillus niger [28]) of the same molecule?
Its Activity is “inactive”.

What about the Activity (Candida tropicalis [29]) of the same molecule?
The Activity was “inactive”.

And the Activity (Fusarium proliferatum [30])?
Its Activity is “inactive”.

How did the Activity (Cryptococcus neoformans [18]) turn out when COc1cc(/C=C2\SC(=S)NC2=O)cc(OC)c1OCC(O)(Cn1cncn1)c1ccc(F)cc1F (racemic) was run?
Its Activity is “inactive”.

And the Activity (Candida albicans [31])?
The Activity was “inactive”.

And the Activity (Nakaseomyces glabratus [32])?
Its Activity is “inactive”.

And the Activity (Aspergillus fumigatus [19])?
The Activity was “inactive”.

What about the Activity (Fusarium proliferatum [20]) of the same molecule?
Its Activity is “inactive”.

And the Activity (Pichia kudriavzevii [21])?
The Activity was “inactive”.

What about the Activity (Aspergillus niger [22]) of the same molecule?
Its Activity is “inactive”.

What about the Activity (Candida tropicalis [23]) of the same molecule?
Its Activity is “inactive”.

Which results are given for COc1cc(CC(=O)O)ccc1OCC(O)(Cn1cncn1)c1ccc(F)cc1F (racemic)?
Activity (Cryptococcus neoformans [33]): inactive; Activity (Candida albicans [34]): inactive; Activity (Aspergillus fumigatus [35]): inactive; Activity (Nakaseomyces glabratus [36]): inactive; Activity (Fusarium proliferatum [37]): inactive; Activity (Candida tropicalis [38]): inactive; Activity (Pichia kudriavzevii [39]): inactive; Activity (Aspergillus niger [40]): inactive

Which results are given for COc1ccc(C2=C(c3ccc(Br)cc3)/C(=C/c3ccc(OCC(O)(Cn4cncn4)c4ccc(F)cc4F)cc3)OC2=O)cc1 (racemic)?
Activity (Cryptococcus neoformans [24]): inactive; Activity (Pichia kudriavzevii [25]): inactive; Activity (Aspergillus fumigatus [26]): inactive; Activity (Nakaseomyces glabratus [41]): inactive; Activity (Candida albicans [27]): inactive; Activity (Aspergillus niger [28]): inactive; Activity (Candida tropicalis [29]): inactive; Activity (Fusarium proliferatum [30]): inactive

With C[C@@H]1[C@H](O)[C@@H](C)/C=C/C=C/C=C/C=C/C=C/C=C/C=C/[C@H](O[C@@H]2O[C@H](C)[C@@H](O)[C@H](N)[C@@H]2O)C[C@@H]2O[C@](O)(C[C@@H](O)C[C@@H](O)[C@H](O)CC[C@@H](O)C[C@@H](O)CC(=O)O[C@H]1C)C[C@H](O)[C@H]2C(=O)O [AMPHOTERICIN B] as the molecule, how does the MIC50 (Cryptococcus neoformans [42]) read?
Its MIC50 is 0.5 µg/mL (≈ 0.541 µM).

And the MIC50 (Pichia kudriavzevii [43])?
Its MIC50 is 0.5 µg/mL (≈ 0.541 µM).

And the MIC50 (Nakaseomyces glabratus [12])?
Its MIC50 is 0.25 µg/mL (≈ 0.271 µM).

And the MIC50 (Candida albicans [13])?
Its MIC50 is 0.25 µg/mL (≈ 0.271 µM).

What about the MIC50 (Fusarium proliferatum [44]) of the same molecule?
The MIC50 was 2 µg/mL (≈ 2.16 µM).

What about the MIC50 (Aspergillus fumigatus [45]) of the same molecule?
The MIC50 was 0.5 µg/mL (≈ 0.541 µM).

And the MIC50 (Aspergillus niger [46])?
The MIC50 was 0.25 µg/mL (≈ 0.271 µM).

And the MIC50 (Candida tropicalis [17])?
The MIC50 was 0.5 µg/mL (≈ 0.541 µM).
